According to patent publication US10266526B2, “Substituted 1,2,3-triazoles as SMYD inhibitors for treating cancer” (EPIZYME, INC., priority 2014, dated 2019):

The compounds below were run against SMYD3 (Homo sapiens (Human), UniProt Q9H7B4) (assay: SMYD3 biochemical assay (SMYD3 enzyme assay on MEKK2 protein substrate, 3H-SAM scintillation proximity assay)). Conditions: Table 1A; average of n = 1 to n = 50; read-out: SMYD3 Biochem IC50.
Outline: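 Detection used scintillation proximity beads to capture ³H-methylated GST-MEKK2 after quench with 100 uM final cold SAM. The reaction was started by SAM/MEKK2 addition after a 30 min RT compound–enzyme preincubation. Enzyme was tag-free full-length human SMYD3 from E. coli, in buffer of 25 mM Tris-Cl pH 8.0, 1 mM TCEP, 0.005% BSG, 0.005% Tween 20.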

Chain of SMYD3 (Q9H7B4 whole entry): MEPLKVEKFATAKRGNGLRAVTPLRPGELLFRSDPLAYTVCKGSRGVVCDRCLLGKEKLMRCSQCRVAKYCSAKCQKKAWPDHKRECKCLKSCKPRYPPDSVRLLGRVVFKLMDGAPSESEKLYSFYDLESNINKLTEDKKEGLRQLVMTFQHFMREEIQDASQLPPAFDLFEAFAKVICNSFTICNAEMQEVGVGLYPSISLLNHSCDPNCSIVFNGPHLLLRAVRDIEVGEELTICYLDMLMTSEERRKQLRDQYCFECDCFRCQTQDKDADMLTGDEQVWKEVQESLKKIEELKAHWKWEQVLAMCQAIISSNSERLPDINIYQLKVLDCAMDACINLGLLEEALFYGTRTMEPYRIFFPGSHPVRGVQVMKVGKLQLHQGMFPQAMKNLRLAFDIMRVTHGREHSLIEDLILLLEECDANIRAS

| SMILES | IC50 [µM] |
| --- | --- |
| N[C@H]1CC[C@H](NC(=O)c2nc3ccncc3s2)CC1 [compound 533, N-((1r,4r)-4-aminocyclohexyl)thiazolo[5,4-c]pyridine-2-carboxamide] | > 50 |
| CC(NC(=O)c1cn(CC(N)=O)nn1)C1CCN(C(=O)[C@H](C)N)CC1 (stereo partly drawn) [compound 534, N-(1-(1-(L-alanyl)piperidin-4-yl)ethyl)-1-(2-amino-2-oxoethyl)-1H-1,2,3-triazole-4-carboxamide] | > 50 |
| CCc1nc(C(=O)N[C@H]2CC[C@H](N)CC2)n[nH]1 [compound 535, N-((1r,4r)-4-aminocyclohexyl)-5-ethyl-1H-1,2,4-triazole-3-carboxamide] | > 50 |
| CCc1nnc(C(=O)N[C@H]2CC[C@H](NC(=O)CCN)CC2)[nH]1 [compound 536, N-((1r,4r)-4-(3-aminopropanamido)cyclohexyl)-5-ethyl-4H-1,2,4-triazole-3-carboxamide] | > 50 |
| NCCC(=O)N[C@H]1CC[C@H](NC(=O)c2c[nH]cn2)CC1 [compound 537, N-((1r,4r)-4-(3-aminopropanamido)cyclohexyl)-1H-imidazole-4-carboxamide] | > 50 |
| Cc1cc2cc(C(=O)NC(C)C3CCN(C(=O)[C@H](C)N)CC3)ccc2[nH]1 (stereo partly drawn) [compound 538, N-(1-(1-(L-alanyl)piperidin-4-yl)ethyl)-2-methyl-1H-indole-5-carboxamide] | > 50 |
| N[C@H]1CC[C@H](C(=O)N[C@H]2CC[C@H](NC(=O)c3ncn[nH]3)CC2)CC1 [compound 539, N-((1R,4r)-4-((1r,4R)-4-aminocyclohexane-1-carboxamido)cyclohexyl)-1H-1,2,4-triazole-5-carboxamide] | > 50 |
| NCCCC(=O)N[C@H]1CC[C@H](NC(=O)c2nnc[nH]2)CC1 [compound 540, N-((1r,4r)-4-(4-aminobutanamido)cyclohexyl)-4H-1,2,4-triazole-3-carboxamide] | > 50 |
| N[C@H]1CC[C@H](NC(=O)c2n[nH]c(Cl)n2)CC1 [compound 541, N-((1r,4r)-4-aminocyclohexyl)-5-chloro-1H-1,2,4-triazole-3-carboxamide] | > 50 |
| Cc1[nH]cnc1C(=O)N[C@H]1CC[C@H](N)CC1 [compound 542, N-((1r,4r)-4-aminocyclohexyl)-5-methyl-1H-imidazole-4-carboxamide] | > 50 |
| Cc1nnc(C(=O)N[C@H]2CC[C@H](NC(=O)CCN)CC2)[nH]1 [compound 543, N-((1r,4r)-4-(3-aminopropanamido)cyclohexyl)-5-methyl-4H-1,2,4-triazole-3-carboxamide] | > 50 |
| Cn1cnc(C(=O)N[C@H]2CC[C@H](N)CC2)n1 [compound 544, N-((1r,4r)-4-aminocyclohexyl)-1-methyl-1H-1,2,4-triazole-3-carboxamide] | > 50 |
| N[C@H]1CC[C@H](NC(=O)c2cc(Cl)[nH]n2)CC1 [compound 545, N-((1r,4r)-4-aminocyclohexyl)-5-chloro-1H-pyrazole-3-carboxamide] | > 50 |
| O=C(NC1CCN(C(=O)CC2CCNCC2)CC1)c1nnc[nH]1 [compound 547, N-(1-(2-(piperidin-4-yl)acetyl)piperidin-4-yl)-4H-1,2,4-triazole-3-carboxamide] | > 50 |
| N[C@H]1CC[C@H](NC(=O)c2nc(I)n[nH]2)CC1 [compound 548, N-((1r,4r)-4-aminocyclohexyl)-3-iodo-1H-1,2,4-triazole-5-carboxamide] | > 50 |
| Cc1n[nH]c(C(=O)NC(C)C2CCN(C(=O)[C@H](C)N)CC2)n1 (stereo partly drawn) [compound 549, N-(1-(1-(L-alanyl)piperidin-4-yl)ethyl)-3-methyl-1H-1,2,4-triazole-5-carboxamide] | > 50 |
| CC(NC(=O)c1nc2ccncc2s1)C1CCN(C(=O)[C@H](C)N)CC1 (stereo partly drawn) [compound 551, N-(1-(1-(L-alanyl)piperidin-4-yl)ethyl)thiazolo[5,4-c]pyridine-2-carboxamide] | > 50 |
| CCc1cnc(C(=O)N[C@H]2CC[C@H](N)CC2)s1 [compound 554, N-((1r,4r)-4-aminocyclohexyl)-5-ethylthiazole-2-carboxamide] | > 50 |
| N[C@H]1CC[C@H](C(=O)N2CCC(NC(=O)c3nnc[nH]3)CC2)CC1 [compound 555, N-(1-((1r,4r)-4-aminocyclohexane-1-carbonyl)piperidin-4-yl)-4H-1,2,4-triazole-3-carboxamide] | > 50 |
| NCCC(=O)N1CCC(NC(=O)c2nnc[nH]2)CC1 [compound 556, N-(1-(3-aminopropanoyl)piperidin-4-yl)-4H-1,2,4-triazole-3-carboxamide] | > 50 |

The remaining lines, values ahead:

| IC50 [µM] | SMILES |
| --- | --- |
| > 50 | Cc1ncc(C(=O)N[C@H]2CC[C@H](N)CC2)[nH]1 [compound 522, N-((1r,4r)-4-aminocyclohexyl)-2-methyl-1H-imidazole-5-carboxamide] |
| > 50 | CC(NC(=O)c1nnc[nH]1)C1CCN(C(=O)[C@H](C)N)CC1 (stereo partly drawn) [compound 523, N-(1-(1-(L-alanyl)piperidin-4-yl)ethyl)-4H-1,2,4-triazole-3-carboxamide] |
| > 50 | NCCC(=O)N[C@H]1CC[C@H](NC(=O)c2nnc[nH]2)CC1 [compound 525, N-((1r,4r)-4-(3-aminopropanamido)cyclohexyl)-4H-1,2,4-triazole-3-carboxamide] |
| > 50 | CC(NC(=O)c1cc(Cl)[nH]n1)C1CCN(C(=O)[C@H](C)N)CC1 (stereo partly drawn) [compound 527, N-(1-(1-(L-alanyl)piperidin-4-yl)ethyl)-5-chloro-1H-pyrazole-3-carboxamide] |
| > 50 | NCCC(=O)N[C@H]1CC[C@H](NC(=O)c2cc(Cl)[nH]n2)CC1 [compound 528, N-((1r,4r)-4-(3-aminopropanamido)cyclohexyl)-5-chloro-1H-pyrazole-3-carboxamide] |
| 4.45 | NCCC(=O)N[C@H]1CC[C@H](NC(=O)c2cc3cn[nH]c3cn2)CC1 [compound 529, N-((1r,4r)-4-(3-aminopropanamido)cyclohexyl)-1H-pyrazolo[3,4-c]pyridine-5-carboxamide] |
| > 50 | NCCC(=O)N[C@H]1CC[C@H](NC(=O)c2n[nH]c(=O)[nH]2)CC1 [compound 530, N-((1r,4r)-4-(3-aminopropanamido)cyclohexyl)-5-oxo-4,5-dihydro-1H-1,2,4-triazole-3-carboxamide] |
| > 50 | N[C@H]1CC[C@H](NC(=O)c2n[nH]c(=O)[nH]2)CC1 [compound 531, N-((1r,4r)-4-aminocyclohexyl)-5-oxo-4,5-dihydro-1H-1,2,4-triazole-3-carboxamide] |
| > 50 | NCCC(=O)N[C@H]1CC[C@H](NC(=O)c2nc3ccncc3s2)CC1 [compound 532, N-((1r,4r)-4-(3-aminopropanamido)cyclohexyl)thiazolo[5,4-c]pyridine-2-carboxamide] |
| 9.76 | CC(NC(=O)c1n[nH]c(=O)[nH]1)C1CCN(C(=O)[C@H](C)N)CC1 (stereo partly drawn) [compound 546, N-(1-(1-(L-alanyl)piperidin-4-yl)ethyl)-5-oxo-4,5-dihydro-1H-1,2,4-triazole-3-carboxamide] |
| 14.7 | Cc1nc(C(=O)N[C@H]2CC[C@H](N)CC2)n[nH]1 [compound 550, N-((1r,4r)-4-aminocyclohexyl)-5-methyl-1H-1,2,4-triazole-3-carboxamide] |
| 6.44 | CCc1cnc(C(=O)NC(C)C2CCN(C(=O)[C@H](C)N)CC2)s1 (stereo partly drawn) [compound 552, N-(1-(1-(L-alanyl)piperidin-4-yl)ethyl)-5-ethylthiazole-2-carboxamide] |
| 25.6 | CCc1cnc(C(=O)N[C@H]2CC[C@H](NC(=O)CCN)CC2)s1 [compound 553, N-((1r,4r)-4-(3-aminopropanamido)cyclohexyl)-5-ethylthiazole-2-carboxamide] |
| 3.49 | N[C@H]1CC[C@H](NC(=O)c2cc3c(cn2)NC(=O)C3)CC1 [compound 559, N-((1r,4r)-4-aminocyclohexyl)-2-oxo-2,3-dihydro-1H-pyrrolo[2,3-c]pyridine-5-carboxamide] |
| > 10 | CN(C(=O)c1ncn[nH]1)[C@H]1CC[C@H](N)CC1 [compound 561, N-((1r,4r)-4-aminocyclohexyl)-N-methyl-1H-1,2,4-triazole-5-carboxamide] |
| > 10 | Cc1c[nH]c(C(=O)N[C@H]2CC[C@H](N)CC2)n1 [compound 562, N-((1r,4r)-4-aminocyclohexyl)-4-methyl-1H-imidazole-2-carboxamide] |
| > 10 | N[C@H]1CC[C@H](NC(=O)c2cc3cc(Br)ccc3nc2O)CC1 [compound 565, N-((1r,4r)-4-aminocyclohexyl)-6-bromo-2-hydroxyquinoline-3-carboxamide] |

Same assay, conditions: read-out: SMYD3 Biochem IC50

| SMILES | IC50 [µM] |
| --- | --- |
| N[C@H]1CC[C@H](NC(=O)c2cncc(O)c2)CC1 [compound 515, N-((1r,4r)-4-aminocyclohexyl)-5-hydroxynicotinamide] | > 50 |
| NCCC(=O)N[C@H]1CC[C@H](NC(=O)c2cn(CC(N)=O)nn2)CC1 [compound 516, 1-(2-amino-2-oxoethyl)-N-((1r,4r)-4-(3-aminopropanamido)cyclohexyl)-1H-1,2,3-triazole-4-carboxamide] | > 50 |
| NC1CCC(NC(=O)c2c[nH]cn2)CC1 (centres unmarked) [compound 517, N-(4-aminocyclohexyl)-1H-imidazole-4-carboxamide] | > 50 |
| NCCC(=O)NC1CCC(NC(=O)c2ncc[nH]2)CC1 (centres unmarked) [compound 518, N-(4-(3-aminopropanamido)cyclohexyl)-1H-imidazole-2-carboxamide] | > 50 |
| Cc1cc2cc(C(=O)N[C@H]3CC[C@H](NC(=O)CCN)CC3)ccc2[nH]1 [compound 519, N-((1r,4r)-4-(3-aminopropanamido)cyclohexyl)-2-methyl-1H-indole-5-carboxamide] | > 50 |
| Cc1cc2cc(C(=O)N[C@H]3CC[C@H](N)CC3)ccc2[nH]1 [compound 520, N-((1r,4r)-4-aminocyclohexyl)-2-methyl-1H-indole-5-carboxamide] | > 50 |
| N[C@H]1CC[C@H](NC(=O)c2c[nH]cn2)CC1 [compound 521, N-((1r,4r)-4-aminocyclohexyl)-1H-imidazole-4-carboxamide] | > 50 |
